# US8071533B2, “Compositions and methods for modulating store-operated calcium entry” (University of Medicine and Dentistry of New Jersey, priority 2006, dated 2011)
# B1: P311: 68 amino acid, 8 kDa cytosolic protein (SEQ ID NO: 1 human, SEQ ID NO: 10 mouse) regulating SOCE (protein)
# chain: MVYYPGLLVWVSQEPFLYKEMEGSLTKGRLPVPKEVNRKKLEEARAASMTPPGSHELCFPNISYL
# B2: His6-tagged P311: full-length P311 with amino-terminal 6x His-tag expressed in E. coli (protein, UniProt Q16612 1-68, looked up)
# chain: MVYYPELFVWVSQEPFPNKDMEGRLPKGRLPVPKEVNRKKNDETNAASLTPLGSSELRSPRISYLHFF
# modifications: full-length N-terminal His6 tag
# notes: full-length P311 with amino-terminal 6x His-tag expressed in E. coli
# What was measured:
# [1] = system: SOCE in C2C12 myotubes; test: SOCE by Mn quenching of Fura-2 in C2C12 myotubes; format: cell-based, mouse
# Description: HEPM cells were loaded with 10 μM Fura-2 AM (Invitrogen, Carlsbad, Calif.) for 45 min at 37° C. and allowed to de-esterify for 15 min at 25° C. Cells were then harvested and re-suspended in balanced salt solution (BSS) containing (in mM): 140 NaCl, 2.8 KCl, 2 CaCl2, 2 MgCl2, 10 HEPES, pH 7.2. 2.5×10^6 cells were transferred into the cuvette system of a PTI spectrofluorometer (Photon Technology International, Princeton, N.J.) and the changes in [Ca]i were measured as changes in the ratio of Fura-2 fluorescence at excitation wavelength of 350 nm (F350) and 380 nm (F380), following exposure to various concentrations of thapsigargin, ionomycin or caffeine and ryanodine (C/R). For measurement in 0.5 mM EGTA, cells were centrifuged and re-suspended in BSS without CaCl2, and 0.5 mM EGTA was added immediately before recordings. […] All experiments were conducted at 25±2° C.
# (§1) Manganese (Mn^2+) is known to be able to permeate into cells via store-operated Ca channels (SOCs), but is impervious to surface membrane extrusion processes or SR uptake by Ca pumps. […] Briefly, to measure the Mn^2+ influx rate through the SOC machinery, thapsigargin (TG), or C/R, was applied to cultured cells or C2C12 myotubes to induce SR Ca depletion in 0 mM extracellular CaCa ([CaCa]o), then 0.5 mM Mn^2+ was added to the extracellular solution. The quenching of Fura-2 fluorescence by Mn^2+ was measured at the Ca-independent excitation wavelength of Fura-2 (360 nm). The decay of Fura-2 fluorescence upon Mn^2+ addition was expressed as percent decrease in Fura-2 fluorescence per unit time (the initial fluorescence is set equal to 100%). For all measurements of SOCE by Mn^2+ quenching, the maximally quenched fluorescence signal was established at the end of the experiment by lysing the cells with 1% Triton, and set equal to 0% fluorescence.
# [2] = system: SOCE in NRP-154 cells; conditions: 10 μM 2-APB, NRP-Con and NRP-Bax cells, TG-depleted
# Description: The role of SOCE in Ca signaling in NRP-154 cells was examined. […] Following ER Ca depletion (200 s treatment), 0.5 mM MnCl2 was added into cuvettes containing 1×10^6 NRP-154 cells loaded with Fura-2. The quenching of Fura-2 fluorescence by the entry of Mn^2+ provided a quantitative assay of SOCE. Specifically, the slope of reduction of Fura-2 fluorescence with time reflected the degree of SOCE activation.
# [3] = system: human embryonic palatal mesenchymal (HEPM) cells; test: Intracellular Ca store release in HEPM cells (Fura-2 ratio, PTI cuvette); format: cell-based; conditions: for Mobilization of Ca from endoplasmic reticulum (ER) stores: HEPM cells loaded with Fura-2
# Description: HEPM cells were loaded with 10 μM Fura-2 AM (Invitrogen, Carlsbad, Calif.) for 45 min at 37° C. and allowed to de-esterify for 15 min at 25° C. Cells were then harvested and re-suspended in balanced salt solution (BSS) containing (in mM): 140 NaCl, 2.8 KCl, 2 CaCl2, 2 MgCl2, 10 HEPES, pH 7.2. 2.5×10^6 cells were transferred into the cuvette system of a PTI spectrofluorometer (Photon Technology International, Princeton, N.J.) and the changes in [Ca]i were measured as changes in the ratio of Fura-2 fluorescence at excitation wavelength of 350 nm (F350) and 380 nm (F380), following exposure to various concentrations of thapsigargin, ionomycin or caffeine and ryanodine (C/R). For measurement in 0.5 mM EGTA, cells were centrifuged and re-suspended in BSS without CaCl2, and 0.5 mM EGTA was added immediately before recordings. Measurement of Ca in individual C2C12 myotubes were performed as described before (Shin, D. W. et al. 2003. J. Biol. Chem. 278:3286-3292). All experiments were conducted at 25±2° C.
# [4] = system: SOCE in HEPM cells; test: SOCE by Mn quenching of Fura-2 in HEPM cells; format: cell-based, human
# Description: as §1
# [5] = biological target: T1, Orai1 (Homo sapiens, UniProt Q96D31); test: Co-immunoprecipitation of P311 with Orai1 in CHO cell lysates; format: binding; conditions: CHO lysates expressing GFP-myc-Orai1; anti-myc and anti-P311
# T1 construct: expressed in transfected cells; host or cells: CHO cells (transient transfection, lysate 36 h after transfection)
# T1 sequence (Q96D31 whole entry, species assumed): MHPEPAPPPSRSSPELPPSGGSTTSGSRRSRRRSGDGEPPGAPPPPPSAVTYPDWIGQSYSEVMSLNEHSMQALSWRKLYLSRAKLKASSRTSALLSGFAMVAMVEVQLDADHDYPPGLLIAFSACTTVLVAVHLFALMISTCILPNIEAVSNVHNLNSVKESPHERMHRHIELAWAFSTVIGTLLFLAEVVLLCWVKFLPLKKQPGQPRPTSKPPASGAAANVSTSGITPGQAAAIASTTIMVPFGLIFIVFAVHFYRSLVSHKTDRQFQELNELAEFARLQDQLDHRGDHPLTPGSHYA
# Description: (§2) Next, the interaction of P311 with SOCE molecular machinery was examined experimentally. The interaction of P311 with known components of SOCE, such as STIM1 and Orai1, was studied. A GFP-myc-Orai1 plasmid and the mammalian expression plasmid containing the human STIM1 cDNA (OriGene, Inc.) were used. The plasmids were transfected into CHO cells and 36 hours after transfection, total cell lysates from CHO cells transiently expressing GFP-myc-Orai1 were incubated with either a polyclonal antibody against P311, or an anti-myc monoclonal antibody, with normal rabbit IgG serving as the control. […] Similar results were obtained when co-IP assays were repeated using reversible cross-linker DSP and different detergents in cell lysis buffer, including Triton X-100, NP-40 and CHAPS.
# [6] = biological target: T2, STIM1 (Homo sapiens, UniProt Q13586); test: Co-immunoprecipitation of P311 with STIM1 in CHO cell lysates; format: binding; conditions: anti-P311 and anti-STIM1
# T2 construct: host or cells: CHO cells (transient transfection)
# T2 sequence (Q13586 23-685): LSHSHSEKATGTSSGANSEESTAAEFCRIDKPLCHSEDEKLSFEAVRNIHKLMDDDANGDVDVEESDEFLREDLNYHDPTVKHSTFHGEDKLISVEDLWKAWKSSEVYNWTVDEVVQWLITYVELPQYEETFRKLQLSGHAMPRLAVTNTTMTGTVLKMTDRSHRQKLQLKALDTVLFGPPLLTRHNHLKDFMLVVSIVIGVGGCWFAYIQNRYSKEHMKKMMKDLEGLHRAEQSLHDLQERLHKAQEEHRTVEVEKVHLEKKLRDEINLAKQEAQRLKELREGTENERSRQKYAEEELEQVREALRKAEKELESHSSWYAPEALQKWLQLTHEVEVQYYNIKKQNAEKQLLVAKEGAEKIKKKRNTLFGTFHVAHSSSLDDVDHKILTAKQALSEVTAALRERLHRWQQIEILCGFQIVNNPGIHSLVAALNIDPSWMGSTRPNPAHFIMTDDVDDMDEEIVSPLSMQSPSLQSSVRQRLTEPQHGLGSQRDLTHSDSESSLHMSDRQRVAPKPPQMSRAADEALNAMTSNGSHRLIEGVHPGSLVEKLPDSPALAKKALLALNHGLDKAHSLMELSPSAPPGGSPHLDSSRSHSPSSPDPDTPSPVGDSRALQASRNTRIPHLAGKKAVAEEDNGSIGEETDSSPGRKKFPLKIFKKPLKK
# Description: as §2
# [7] = Solubility of recombinant P311 expressed in E. coli; format: physicochemical; conditions: E. coli lysate, a portion of the overexpressed protein
# Description: Using standard recombinant DNA technology, the full-length P311 protein was cloned into a T7-based expression plasmid with a 6× His-tag at either the amino-terminus (pET15b, Novagen) or the carboxy-terminus (pET21b, Novagen) and as a fusion protein with glutathione S-transferase (GST) in plasmid pGEX-2T (Pharmacia). In addition, the untagged P311 was cloned into a T7-based bacterial expression vector pG5 (Alexander, P. et al. 1992. Biochemistry 31:3597-3603). The bacterial host is grown for 12-14 hours at room temperature or for 4 hours at 37° C. after induction with 0.2 mM IPTG. Robust expression for the amino-terminal His6-tagged P311 protein […] was observed; the amino-terminal His6-tagged P311 protein was soluble. The soluble fraction of the His6-tagged P311 protein in the E. coli lysate was purified over a Ni-NTA agarose column. The protein was eluted by 250 mM immidazole and further purified by […] chromatography (Source-15S, Pharmacia) and gel-filtration chromatography (Superdex-200, Pharmacia). The P311 protein was purified to greater than 80% homogeneity as judged on SDS-PAGE. The concentration of P311 was determined by spectroscopic measurement at 280 nm.
molecule,measurement,setting,value
"NCCOB(c1ccccc1)c1ccccc1 [2-APB, 2-aminoethoxydiphenyl borate]",Effect on PTZ-triggered Mn quenching of Fura-2 fluorescence,[1]; C2C12 myotubes,inhibited
same,Effect on TG-initiated Mn entry through SOCE,"[1]; C2C12 myotubes, 2-APB 20 μM",blocked
same,Effect on SOCE (Mn quenching of Fura-2),[2],inhibited SOCE
"Nc1ncnc2c1ncn2[C@@H]1O[C@H](COP(=O)(O)OP(=O)(O)OP(=O)(O)O)[C@@H](O)[C@H]1O [ATP, adenosine triphosphate]",Ca release on ATP stimulation in LPS-treated cells,"[3]; ATP 1 or 3 mM, LPS-treated HEPM cells",no effect
same,Mobilization of Ca from endoplasmic reticulum (ER) stores,[3],not responsive
"C1CCc2nnnn2CC1 [PTZ, pentylenetetrazol]",Effect on SOCE in shRNA-treated myotubes,[1]; C2C12 myotubes transfected with shRNA against P311,absent
same,SR Ca filling status,[1]; C2C12 myotubes treated with PTZ,without affecting the SR Ca filling status
same,Activation of SOCE (Mn entry),"[1]; C2C12 myotubes, 20 mM PTZ, no SR Ca depletion",induced the activation of SOCE
C[C@H](CCC(=O)O)C[C@H](C)C[C@H](C)C(=O)/C=C(\O)[C@H](C)C[C@H](C)C/C=C/[C@@H](C)[C@@H](O)[C@@H](C)[C@@H](O)C[C@@H]1CC[C@@](C)([C@H]2CC[C@@](C)([C@@H](C)O)O2)O1 [ionomycin],Mobilization of Ca from endoplasmic reticulum (ER) stores,[3],reveals a large store of Ca available for release
same,Activation of SOCE following Ca store depletion,[4],rapid activation of SOCE
[K+] [potassium],Mobilization of Ca from endoplasmic reticulum (ER) stores,[3],not responsive
C/C=C(/C)C(=O)O[C@H]1C(C)=C2[C@H]([C@@H]1OC(=O)CCCCCCC)[C@@](C)(OC(C)=O)C[C@H](OC(=O)CCC)[C@@]1(O)[C@H]2OC(=O)[C@@]1(C)O [thapsigargin],Activation of SOCE following Ca store depletion,[4],rapid activation of SOCE
B1,Co-immunoprecipitation with Orai1,[5],physical interaction between P311 and Orai1
same,Co-immunoprecipitation with STIM1,[6],could not immunoprecipitation
B2,Solubility of overexpressed protein,[7],soluble
